Results on 30 compounds are retold here after patent publication US7687481B2, “Cannabinoid receptor antagonists/inverse agonists useful for treating obesity” (Jenrin Discovery, Inc., priority 2006, dated 2010).

For one series, the target named is T1, human cannabinoid CB1 receptor (Homo sapiens, UniProt P21554).
T1 construct: expressed in transfected cells; host or cells: Chinese hamster ovary (CHO) cells, stably transfected; membrane preparation
T1 sequence (P21554 whole entry): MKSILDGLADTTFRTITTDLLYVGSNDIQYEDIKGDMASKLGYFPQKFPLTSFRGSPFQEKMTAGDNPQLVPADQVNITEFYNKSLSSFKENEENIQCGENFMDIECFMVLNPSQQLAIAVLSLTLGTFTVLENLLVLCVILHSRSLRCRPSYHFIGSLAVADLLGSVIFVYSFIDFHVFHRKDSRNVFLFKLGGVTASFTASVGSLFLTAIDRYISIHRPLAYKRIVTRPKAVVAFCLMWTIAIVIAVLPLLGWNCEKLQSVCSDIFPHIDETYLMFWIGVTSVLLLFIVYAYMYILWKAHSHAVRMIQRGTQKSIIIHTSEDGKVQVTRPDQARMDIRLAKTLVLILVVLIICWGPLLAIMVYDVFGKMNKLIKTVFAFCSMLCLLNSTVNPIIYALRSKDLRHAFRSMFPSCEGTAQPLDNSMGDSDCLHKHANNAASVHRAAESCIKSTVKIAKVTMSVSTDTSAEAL
Put plainly: CB1 receptor affinity, [3H]CP-55,940 radioligand binding to CHO cell membranes.
Conditions: not given
Here is the method: CB1 receptor affinities can be determined using membrane preparations of Chinese hamster ovary (CHO) cells in which the human cannabinoid CB1 receptor is stably transfected (Biochem J. 1991, 279, 129-134) in conjunction with [3H]CP-55,940 as radioligand. After incubation of a freshly prepared cell membrane preparation with the [3H]-radioligand, with or without addition of test compound, separation of bound and free ligand is performed by filtration over glass fiber filters. Radioactivity on the filter is measured by liquid scintillation counting. The IC50 values can be determined from at least three independent measurements.
Tables A-E below describe selected examples of the present invention that have been synthesized and tested. The activities of these compounds are as follows: • +=an IC50 of ≦10 μM; • ++=IC50 of ≦1 μM; and, • +++=an IC50 ≦100 nM.
Consider `CCOC(=O)C(CC(C)C)NC(=O)c1nn(-c2ccc(Cl)cc2Cl)c(-c2ccc(Cl)cc2)c1C` (stereo not shown) [Example A-8], for which the IC50 was less than 100 nM.
Same read-out and setting: then `CCOC(=O)C(NC(=O)c1nn(-c2ccc(Cl)cc2Cl)c(-c2ccc(Cl)cc2)c1C)C(C)(C)C` (stereo not shown) [Example A-11], with less than 100 nM; and `Cc1c(C(=O)NC(C(N)=O)C(C)(C)C)nn(-c2ccc(Cl)cc2Cl)c1-c1ccc(Cl)cc1` (stereo not shown) [Example B-10], with less than 100 nM.

The same series, now with this note: Table A; read-out: CB1 Receptor Activity.
Take `CCOC(=O)CNC(=O)c1nn(-c2ccc(Cl)cc2Cl)c(-c2ccc(Cl)cc2)c1C` [Example A-1]: the IC50 is less than 10000 nM.
Consider `CCOC(=O)C(Cc1ccccc1)NC(=O)c1nn(-c2ccc(Cl)cc2Cl)c(-c2ccc(Cl)cc2)c1C` (stereo not shown) [Example A-2], for which the IC50 is less than 1000 nM.
As for `CCOC(=O)CCNC(=O)c1nn(-c2ccc(Cl)cc2Cl)c(-c2ccc(Cl)cc2)c1C` [Example A-3], the IC50 was less than 10000 nM.
Still for that read-out and setting: then `Cc1c(C(=O)NC(Cc2ccccc2)C(=O)O)nn(-c2ccc(Cl)cc2Cl)c1-c1ccc(Cl)cc1` (stereo not shown) [Example A-4], with less than 10000 nM; and `CCOC(=O)CCCNC(=O)c1nn(-c2ccc(Cl)cc2Cl)c(-c2ccc(Cl)cc2)c1C` [Example A-5], with less than 10000 nM.
In the case of `CCOC(=O)CC(C)NC(=O)c1nn(-c2ccc(Cl)cc2Cl)c(-c2ccc(Cl)cc2)c1C` (stereo not shown) [Example A-6], the IC50 is less than 1000 nM.
Still for that read-out and setting: the figure for `CCOC(=O)C(C)NC(=O)c1nn(-c2ccc(Cl)cc2Cl)c(-c2ccc(Cl)cc2)c1C` (stereo not shown) [Example A-7] is less than 1000 nM; for `Cc1c(C(=O)NC(CC(C)C)C(=O)O)nn(-c2ccc(Cl)cc2Cl)c1-c1ccc(Cl)cc1` (stereo not shown) [Example A-9] it is less than 1000 nM.
The same measure, in the same setting: then `CCOC(=O)C(NC(=O)c1nn(-c2ccc(Cl)cc2Cl)c(-c2ccc(Cl)cc2)c1C)C(C)CC` (stereo not shown) [Example A-10], with less than 100 nM; and `Cc1c(C(=O)NC(C(=O)O)C(C)(C)C)nn(-c2ccc(Cl)cc2Cl)c1-c1ccc(Cl)cc1` (stereo not shown) [Example A-12], with less than 100 nM.

The same series, now with this note: Table B; read-out: CB1 Receptor Activity.
For `Cc1c(C(=O)NCCC(N)=O)nn(-c2ccc(Cl)cc2Cl)c1-c1ccc(Cl)cc1` [Example B-1], the IC50 was less than 10000 nM.
The same measure, in the same setting: the figure for `Cc1c(C(=O)NC(C)CC(N)=O)nn(-c2ccc(Cl)cc2Cl)c1-c1ccc(Cl)cc1` (stereo not shown) [Example B-2] is less than 10000 nM.
The same measure, in the same setting: then `Cc1c(C(=O)NC(CC(C)C)C(N)=O)nn(-c2ccc(Cl)cc2Cl)c1-c1ccc(Cl)cc1` (stereo not shown) [Example B-3], with less than 1000 nM; and `CCC(C)C(NC(=O)c1nn(-c2ccc(Cl)cc2Cl)c(-c2ccc(Cl)cc2)c1C)C(N)=O` (stereo not shown) [Example B-4], with less than 100 nM; and `Cc1c(C(=O)NC(Cc2ccccc2)C(N)=O)nn(-c2ccc(Cl)cc2Cl)c1-c1ccc(Cl)cc1` (stereo not shown) [Example B-5], with less than 100 nM.
Still for that read-out and setting: then `Cc1c(C(=O)NCc2cccc(C(N)=O)c2)nn(-c2ccc(Cl)cc2Cl)c1-c1ccc(Cl)cc1` [Example B-6], with less than 1000 nM; and `Cc1c(C(=O)NCc2ccc(C(N)=O)cc2)nn(-c2ccc(Cl)cc2Cl)c1-c1ccc(Cl)cc1` [Example B-7], with less than 1000 nM; and `Cc1c(C(=O)NCc2cccc(C(=N)N)c2)nn(-c2ccc(Cl)cc2Cl)c1-c1ccc(Cl)cc1` [Example B-8], with less than 1000 nM.
As to `Cc1c(C(=O)NCc2ccc(C(=N)N)cc2)nn(-c2ccc(Cl)cc2Cl)c1-c1ccc(Cl)cc1` [Example B-9], the IC50 is less than 10000 nM.

The series is the same for the next values; noted with them: Table C; read-out: CB1 Receptor Activity.
Consider `CCOC(=O)C1CCCN(NC(=O)c2nn(-c3ccc(Cl)cc3Cl)c(-c3ccc(Cl)cc3)c2C)C1` (stereo not shown) [Example C-1], for which the IC50 was less than 1000 nM.
On the same count and under the same terms, then `CCOC(=O)C1CCN(NC(=O)c2nn(-c3ccc(Cl)cc3Cl)c(-c3ccc(Cl)cc3)c2C)CC1` [Example C-2], with less than 1000 nM; and `Cc1c(C(=O)NN2CCCC(C(N)=O)C2)nn(-c2ccc(Cl)cc2Cl)c1-c1ccc(Cl)cc1` (stereo not shown) [Example C-3], with less than 100 nM.

Still in this series, the particulars now being: Table E; read-out: CB1 Receptor Activity.
As for `CCOC(=O)C1CCC(NC(=O)c2nn(-c3ccc(Cl)cc3Cl)c(-c3ccc(Cl)cc3)c2C)CC1` (stereo not shown) [Example E-1], the IC50 is less than 10000 nM.
Still for that read-out and setting: the figure for `Cc1c(C(=O)NC2CCC(C(N)=O)CC2)nn(-c2ccc(Cl)cc2Cl)c1-c1ccc(Cl)cc1` (stereo not shown) [Example E-2] is less than 10000 nM.

System in a further series: not given
Test: not given
Conditions: dose-related, most pronounced at the most efficacious weight-reducing dose; cited from earlier work.
Regarding `Cc1c(C(=O)NN2CCCCC2)nn(-c2ccc(Cl)cc2Cl)c1-c1ccc(Cl)cc1` [rimonabant], the side effects entry is “psychiatric and nervous system side effects”.

Staying with this series, now noted: obese patients; cited from earlier work.
As for `Cc1c(C(=O)NN2CCCCC2)nn(-c2ccc(Cl)cc2Cl)c1-c1ccc(Cl)cc1` [rimonabant], the weight loss entry was “clinically meaningful weight loss”.

System in a further series: not given
Test: not given
The settings on record: usually not maintained; cited from earlier work.
Consider `CCCCCCCCCCC[C@@H](C[C@@H]1OC(=O)[C@H]1CCCCCC)OC(=O)[C@H](CC(C)C)NC=O` [orlistat], for which the “initial weight loss compared to placebo” value is given as “approximately 5%”.
For the compound `CC(C)CC(N(C)C)C1(c2ccc(Cl)cc2)CCC1` (stereo not shown) [sibutramine], the “initial weight loss compared to placebo” value was “approximately 5%”.
